Reference: PMC12006963, “Application of Deuterium in an M1 Positive Allosteric Modulator Back-Up Program: The Discovery of VU6045422” (ACS Chemical Neuroscience, 2025)

Experiments:
Type in all cases: in vitro ADME
[1] = target: CYP 2C9 (Homo sapiens, UniProt P11712); assay: CYP inhibition 2C9
Text: (§1) Table 1 Pharmacology and In Vitro DMPK Profiles of M1 PAMs 1, 3, and 5 | column: 1; 3; 5

[2] = Predicted hepatic clearance, hepatic microsomes (rat)
Method: (§2) After a 5 min preincubation, the reaction was initiated by the addition of NADPH (1 mM). At selected time intervals (0, 3, 7, 15, 25, and 45 min), aliquots were taken and subsequently placed into a 96-well plate containing cold acetonitrile with internal standard (50 ng/mL carbamazepine). Plates were then centrifuged at 3000 rcf (4 °C) for 10 min, and the supernatant was transferred to a separate 96-well plate and diluted 1:1 with water for LC/MS/MS analysis. The in vitro half-life ( 1/2, min, Eq. 1), intrinsic clearance (CLint, mL/min/kg, Eq. 2), and subsequent predicted hepatic clearance (CLhep, mL/min/kg, Eq. 3) was determined employing the […]
(§3) where k represents the slope from linear regression analysis of the natural log percent remaining of a test compound as a function of incubation time […]
(§4) (2) CLint = in vitroT1/2 x mg microsomes x gram liver x kg body wt ascale-up factors: of 20 (human) or 45 (rat) […]
(§5) where Qh (hepatic blood flow, mL/min/kg) is 21 (human) or 70 (rat).
(§6) LC/MS/MS Bioanalysis of Samples from Plasma Protein Binding and Intrinsic Clearance […]
(§7) Samples were analyzed on a Thermo Electron TSQ Quantum Ultra triple quad mass spectrometer (San Jose, CA) via electrospray ionization (ESI) with two Themo Electron Accella pumps (San Jose, CA), and a Leap Technologies CTC PAL autosampler (Carrboro, NC). Analytes were separated by gradient elution on a dual column system with two Thermo Hypersil Gold (2.1 x 30 mm, 1.9 µm) columns (San Jose, CA) thermostated at 40 °C. HPLC mobile phase A was 0.1% formic acid in water and mobile phase B was 0.1% formic acid in acetonitrile. The gradient started […]
(§8) for 0.2 min; returned to 10% B in 0.1 min. The total run time was 1.3 min and the HPLC flow rate was 0.8 mL/min. While pump 1 ran the gradient method, pump 2 equilibrated the alternate column isocratically at 10% B. Compound optimization, data collection, and processing was performed using Thermo Electron's QuickQuan software (v2.3) and Xcalibur (v2.0.7 SP1).
(§9) In vivo DMPK experimental:
(§10) Determination of brain to plasma ratio: […]

[3] = target: T1, CYP 1A2 (Homo sapiens, UniProt P05177); assay: CYP inhibition 1A2
T1 sequence (P05177 1-516): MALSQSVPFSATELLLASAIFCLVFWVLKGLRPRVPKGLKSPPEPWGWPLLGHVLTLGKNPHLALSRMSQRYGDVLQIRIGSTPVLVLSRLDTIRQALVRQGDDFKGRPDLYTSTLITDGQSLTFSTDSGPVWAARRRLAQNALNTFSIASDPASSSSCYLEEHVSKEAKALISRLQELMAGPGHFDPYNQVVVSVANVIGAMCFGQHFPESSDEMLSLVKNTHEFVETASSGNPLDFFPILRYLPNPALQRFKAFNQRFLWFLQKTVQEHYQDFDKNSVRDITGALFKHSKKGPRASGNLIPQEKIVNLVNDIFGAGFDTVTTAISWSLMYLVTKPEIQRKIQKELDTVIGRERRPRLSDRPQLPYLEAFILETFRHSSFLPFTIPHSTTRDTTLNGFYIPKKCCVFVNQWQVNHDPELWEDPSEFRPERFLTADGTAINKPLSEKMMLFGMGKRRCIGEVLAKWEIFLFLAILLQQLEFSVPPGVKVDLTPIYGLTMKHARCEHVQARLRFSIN
Text: as §1

[4] = Hepatocyte metabolite identification (dog); conditions: dog hepatocytes, 4 h incubation
Method: Prior to full characterization of deuterated analogues 3 and 5, they were incubated in rat, dog, monkey, and human hepatocytes, along with 1, to determine the amount of parent remaining, as well as the degree of undesired oxidative metabolites 2, 4, and 6 (Figure 2). […] For the gem-dideutero congener 3, metabolic stability was improved in vitro. […] Thus, in hepatocytes in vitro, the kinetic isotope effect engendered greater metabolic stability of the labile hot spot on the lactam. It remained to be seen if this effect would translate in vivo, but we first had to assess the impact of the deuterated analogues on molecular pharmacology, in vitro DMPK, standard low-dose in vivo DMPK and, if warranted, in vivo efficacy in a rat novel object recognition (NOR) behavioral assay.

[5] = Predicted hepatic clearance, hepatic microsomes (dog)
Method: as §2, §3, §4, §5, §6, §7, §8, §9, §10

Chain of CYP 2C9 (P11712 whole entry): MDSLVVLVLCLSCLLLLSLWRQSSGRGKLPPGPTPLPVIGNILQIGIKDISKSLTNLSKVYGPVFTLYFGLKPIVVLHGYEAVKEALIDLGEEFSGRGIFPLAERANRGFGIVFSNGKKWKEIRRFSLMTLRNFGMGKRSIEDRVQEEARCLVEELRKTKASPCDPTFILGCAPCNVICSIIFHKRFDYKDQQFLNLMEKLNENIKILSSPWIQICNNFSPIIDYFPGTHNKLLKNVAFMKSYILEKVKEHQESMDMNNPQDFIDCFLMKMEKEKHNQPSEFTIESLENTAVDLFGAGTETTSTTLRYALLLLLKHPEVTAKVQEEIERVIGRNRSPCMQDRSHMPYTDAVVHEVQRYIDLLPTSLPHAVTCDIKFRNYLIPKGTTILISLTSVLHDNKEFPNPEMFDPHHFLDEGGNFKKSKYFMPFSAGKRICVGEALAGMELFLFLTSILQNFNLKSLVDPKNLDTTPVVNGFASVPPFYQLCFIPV

Row | Compound | IC50 [1] | Predicted CLhep [2] | IC50 [3] | % Total Peak Area, parent remaining [4] | Predicted CLhep [5]
1 | Cn1cc2c(-c3cc(F)c(CN4Cc5ncccc5C4=O)c(F)c3)cccc2n1 [compound 1] | > 30 µM | 5.7 mL/min/kg | 14.2 µM | 71.7% | 5.5 mL/min/kg
2 | [2H]C1([2H])c2ncccc2C(=O)N1Cc1c(F)cc(-c2cccc3nn(C)cc23)cc1F [compound 3] | 17.4 µM | 41.3 mL/min/kg | > 30 µM | 91.9% | 14.4 mL/min/kg
3 | [2H]C1([2H])c2ncccc2C(=O)N1Cc1c(F)cc(-c2cccc3nn(C([2H])([2H])[2H])cc23)cc1F [compound 5] | 8.8 µM | 35.9 mL/min/kg | > 30 µM | 87.8% | 8.8 mL/min/kg
